Patent US12377175B2, “Trifunctional constructs with tunable pharmacokinetics useful in imaging and anti-tumor therapies” (Cornell University, priority 2016, dated 2025)
One block for each compound: values may come before it.

Tests used:
Type in all cases: in vivo, mouse
[1] = tested on: LNCaP xenograft tumor-bearing mice; assay: PET/CT imaging of 66Ga-RPS ligands in LNCaP xenograft mice; settings: 66Ga PET/CT
Procedure: (§1) Inoculation of mice with xenografts: All animal studies were approved by the Institutional Animal Care and Use Committee of Weill Cornell Medicine and were undertaken in accordance with the guidelines set forth by the USPHS Policy on Humane Care and Use of Laboratory Animals. Animals were housed under standard conditions in approved facilities with 12 h light/dark cycles. Food and water was provided ad libitum throughout the course of the studies. Hairless male nu/nu mice were purchased from the Jackson Laboratory. For inoculation in mice, LNCaP cells were suspended at 4×10^7 cells/mL in a 1:1 mixture of PBS:Matrigel (BD Biosciences). Each mouse was injected in the left flank with 0.25 mL of the cell suspension. The mice were imaged when the tumors reached approximately 200-400 mm^3, while biodistributions were conducted when tumors were in the range 100-400 mm^3.
Imaging of ^66Ga-RPS ligands in LNCaP xenograft mice: LNCaP xenograft tumor-bearing mice (2-3 per compound) injected intravenously with a bolus injection of 0.56-5.4 MBq (15-145 μCi) of the ^66Ga-labeled ligand. The specific activity of the tracers was in the range 14.8-47 MBq/μmol (0.4-1.27 mCi/μmol). The mice were imaged using PET/CT (Inveon™; Siemens Medical Solutions, Inc.) at 1, 3, 6 and 24 h post-injection following inhalation anesthetization with isoflurane. Total acquisition time was 30 min for the 1 h, 3 h and 6 h images, and 60 min for 24 h time point. A CT scan was obtained immediately before the acquisition for both anatomical co-registration and attenuation correction. Images were reconstructed using the Inveon™ software supplied by the vendor. Image-derived tumor and kidney uptake was estimated by comparison to a 10% injected dose […] standard introduced into the imaging field of view. The standard was prepared by dilution of 10% of the injected activity to 1 mL with saline. Volumes of interest (VOIs) were drawn with the aid of the CT and confirmed by PET. The contents of the VOIs were integrated and the calculated counts were converted to […] by direct comparison to the aforementioned standard following correction for activity injected.

[2] = tested on: LNCaP xenograft tumor-bearing mice; assay: Biodistribution studies of 177Lu-labeled ligands in LNCaP xenograft mice; settings: for Max. Tumor Uptake: corresponding 177Lu-labeled compound, 4 h p.i. (a)
Procedure: as §1
Biodistribution studies of 177Lu-labeled ligands in LNCaP xenograft mice: LNCaP xenograft tumor-bearing mice (5 per time point per compound) were injected intravenously with a bolus injection of 348-851 kBq (9.4-23 μCi) and 37-50 ng ([…]) of each ligand. The mice were sacrificed at 4, 24 and 96 h post injection. A blood sample was removed, and a full biodistribution study was conducted on the following organs (with contents): heart, lungs, liver, small intestine, large intestine, stomach, spleen, pancreas, kidneys, muscle, bone and tumor. Tissues were weighed and counted on a 2470 Wizard^2 Automatic Gamma Counter (Perkin Elmer). Counts were corrected for decay and for activity injected, and tissue uptake was expressed as percent injected dose per gram (% ID/g). Standard error measurement was calculated for each data point.

[3] = tested on: LNCaP xenograft tumor-bearing mice; assay: Biodistribution of 225Ac-macropa-RPS-070 in LNCaP xenograft mice; settings: 4-96 h; no accumulation of 225Ac in liver, spleen, bone
Procedure: Cell Culture. […] Cell culture supplies were from Invitrogen unless otherwise noted.
as §1, with “of Mice” for “of mice”, “with Xenografts.” for “with xenografts:”, “suspension. Biodistributions” for “suspension. The mice were imaged when the tumors reached approximately 200-400 mm^3, while biodistributions”
Biodistribution of […] in LNCaP xenograft mice. Fifteen LNCaP xenograft tumor-bearing mice (5 per time point) were injected intravenously with a bolus injection of 85-95 kBq and 100 ng ([…]) of each ligand. The mice were sacrificed by cervical dislocation at 4, 24 and 96 h post injection. A blood sample was removed, and a full biodistribution study was conducted on the following organs (with contents): heart, lungs, liver, small intestine, large intestine, stomach, spleen, pancreas, kidneys, muscle, bone, and tumor. Tissues were weighed and counted on a 2470 Wizard Automatic Gamma Counter (Perkin Elmer). 1% ID/mL samples were counted prior to and following each set of tissue samples to enable decay correction to be undertaken. Counts were corrected for decay and for activity injected, and tissue uptake was expressed as percent injected dose per gram (% ID/g). Standard error measurement was calculated for each data point.

maximum kidney uptake (image-derived) [1]: 0.4±0.1 % ID/cm^3
time of maximum uptake in the tumor [1]: 1 h
kidney uptake (image-derived) ([1]; 24 h post injection): 0.1±0.1 % ID/cm^3
maximum uptake in the tumor (image-derived) ([1]; over 1, 3, 6 and 24 h post injection): 3.1±0.4 % ID/cm^3
SMILES: O=C(O)CCC(NC(=O)NC(CCCCNC(=O)C(Cc1ccc2ccccc2c1)NC(=O)C1CCC(CNC(=O)CN2CCN(CC(=O)O)CCN(CC(=O)O)CCN(CC(=O)O)CC2)CC1)C(=O)O)C(=O)O (stereo not shown) [66Ga-PSMA-617, metal not drawn, reference compound]

SMILES: O=C([O-])CN1CCN(CC(=O)[O-])CCN(CC(=O)O)C(Cc2ccc(NC(=S)NCCCC[C@H](NC(=O)CCOCCOCCOCCOCCn3cc(-c4cccc(NC(=O)NCCCC[C@H](NC(=O)N[C@@H](CCC(=O)O)C(=O)O)C(=O)O)c4)nn3)C(=O)N[C@@H](CCCCNC(=O)Cc3ccc(I)cc3)C(=O)O)cc2)CN(CC(=O)[O-])CC1.[66Ga+3] (stereo partly shown) [66Ga-RPS-061]
kidney uptake (image-derived) ([1]; 1 h post injection): 10.5±2.1 % ID/cm^3
tumor uptake (image-derived) ([1]; 24 h post injection): 6.1±1.1 % ID/cm^3

blood activity (comparison within the series) ([2]; 4 h p.i.): highest blood activity
SMILES: O=C(O)CCC(NC(=O)NC(CCCCNC(=O)Nc1cccc(-c2cnnn2CC(=O)NC(CCCCNC(=S)Nc2ccc(CC3CN(CC(=O)O)CCN(CC(=O)O)CCN(CC(=O)O)CCN3CC(=O)O)cc2)C(=O)NC(CCCCNC(=O)Cc2ccc(I)cc2)C(=O)O)c1)C(=O)O)C(=O)O (stereo not shown) [177Lu-RPS-068, metal not drawn]

SMILES: O=C(O)CC[C@H](NC(=O)N[C@@H](CCCCNC(=O)Nc1cccc(-c2cn(CCOCCOCCOCCOCCC(=O)N[C@@H](CCCCNC(=S)Nc3ccc(CC4CN(CC(=O)O)CCN(CC(=O)O)CCN(CC(=O)O)CCN4CC(=O)O)cc3)C(=O)N[C@@H](CCCCNC(=O)Cc3ccc(I)cc3)C(=O)O)nn2)c1)C(=O)O)C(=O)O (stereo partly drawn) [RPS-061, (((1S)-1-carboxy-5-(3-(3-(1-((17S,20S)-20-carboxy-27-(4-iodophenyl)-15,18,26-trioxo-17-(4-(3-(4-((1,4,7,10-tetrakis(carboxymethyl)-1,4,7,10-tetraazacyclododecan-2-yl)methyl)phenyl)thioureido)butyl)-3,6,9,12-tetraoxa-16,19,25-triazaheptacosyl)-1H-1,2,3-triazol-4-yl)phenyl)ureido)pentyl)carbamoyl)-L-glutamic acid]
Max. Tumor Uptake [2]: 20.4 ± 3.1 % ID/g

SMILES: O=C(O)CC[C@H](NC(=O)N[C@@H](CCCCNC(=O)Nc1cccc(-c2cn(CCOCCOCCOCCC(=O)N[C@@H](CCCCNC(=S)Nc3ccc(CC4CN(CC(=O)O)CCN(CC(=O)O)CCN(CC(=O)O)CCN4CC(=O)O)cc3)C(=O)N[C@@H](CCCCNC(=O)Cc3ccc(I)cc3)C(=O)O)nn2)c1)C(=O)O)C(=O)O (stereo partly drawn) [RPS-063, (((1S)-1-carboxy-5-(3-(3-(1-((14S,17S)-17-carboxy-24-(4-iodophenyl)-12,15,23-trioxo-14-(4-(3-(4-((1,4,7,10-tetrakis(carboxymethyl)-1,4,7,10-tetraazacyclododecan-2-yl)methyl)phenyl)thioureido)butyl)-3,6,9-trioxa-13,16,22-triazatetracosyl)-1H-1,2,3-triazol-4-yl)phenyl)ureido)pentyl)carbamoyl)-L-glutamic acid]
Max. Tumor Uptake [2]: 30.0 ± 6.9 % ID/g

SMILES: O=C(O)CC[C@H](NC(=O)N[C@@H](CCCCNC(=O)Nc1cccc(-c2cn(CCOCCOCCOCCOCCOCCOCCOCCOCCC(=O)N[C@@H](CCCCNC(=S)Nc3ccc(CC4CN(CC(=O)O)CCN(CC(=O)O)CCN(CC(=O)O)CCN4CC(=O)O)cc3)C(=O)N[C@@H](CCCCNC(=O)Cc3ccc(I)cc3)C(=O)O)nn2)c1)C(=O)O)C(=O)O (stereo partly drawn) [RPS-066, (((1S)-1-carboxy-5-(3-(3-(1-((29S,32S)-32-carboxy-39-(4-iodophenyl)-27,30,38-trioxo-29-(4-(3-(4-((1,4,7,10-tetrakis(carboxymethyl)-1,4,7,10-tetraazacyclododecan-2-yl)methyl)phenyl)thioureido)butyl)-3,6,9,12,15,18,21,24-octaoxa-28,31,37-triazanonatriacontyl)-1H-1,2,3-triazol-4-yl)phenyl)ureido)pentyl)carbamoyl)-L-glutamic acid]
Max. Tumor Uptake [2]: 18.7 ± 1.1 % ID/g

Max. Tumor Uptake [2]: 7.6 ± 1.2 % ID/g
SMILES: O=C(O)CC[C@H](NC(=O)N[C@@H](CCCCNC(=O)Nc1cccc(-c2cnnn2CCOCCOCCOCCOCCOCCOCCOCCOCCOCCOCCOCCOCCC(=O)N[C@@H](CCCCNC(=S)Nc2ccc(CC3CN(CC(=O)O)CCN(CC(=O)O)CCN(CC(=O)O)CCN3CC(=O)O)cc2)C(=O)N[C@@H](CCCCNC(=O)Cc2ccc(I)cc2)C(=O)O)c1)C(=O)O)C(=O)O (stereo partly drawn) [RPS-067, (((1S)-1-carboxy-5-(3-(3-(1-((41S,44S)-44-carboxy-51-(4-iodophenyl)-39,42,50-trioxo-41-(4-(3-(4-((1,4,7,10-tetrakis(carboxymethyl)-1,4,7,10-tetraazacyclododecan-2-yl)methyl)phenyl)thioureido)butyl)-3,6,9,12,15,18,21,24,27,30,33,36-dodecaoxa-40,43,49-triazahenpentacontyl)-1H-1,2,3-triazol-5-yl)phenyl)ureido)pentyl)carbamoyl)-L-glutamic acid]

SMILES: O=C(O)CC[C@H](NC(=O)N[C@@H](CCCCNC(=O)Nc1cccc(-c2cn(CCOCCOCCOCCOCCOCCOCCC(=O)N[C@@H](CCCCNC(=S)Nc3ccc(CC4CN(CC(=O)O)CCN(CC(=O)O)CCN(CC(=O)O)CCN4CC(=O)O)cc3)C(=O)N[C@@H](CCCCNC(=O)Cc3ccc(I)cc3)C(=O)O)nn2)c1)C(=O)O)C(=O)O (stereo partly drawn) [RPS-069, (((1S)-1-carboxy-5-(3-(3-(1-((23S,26S)-26-carboxy-33-(4-iodophenyl)-21,24,32-trioxo-23-(4-(3-(4-((1,4,7,10-tetrakis(carboxymethyl)-1,4,7,10-tetraazacyclododecan-2-yl)methyl)phenyl)thioureido)butyl)-3,6,9,12,15,18-hexaoxa-22,25,31-triazatritriacontyl)-1H-1,2,3-triazol-4-yl)phenyl)ureido)pentyl)carbamoyl)-L-glutamic acid]
Max. Tumor Uptake [2]: 17.0 ± 2.1 % ID/g

SMILES: O=C(O)CC[C@H](NC(=O)N[C@@H](CCCCNC(=O)Nc1cccc(-c2cn(CCOCCOCCOCCOCCOCCOCCC(=O)N[C@@H](CCCCNC(=S)Nc3cc(CN4CCOCCOCCN(Cc5cccc(C(=O)O)n5)CCOCCOCC4)nc(C(=O)O)c3)C(=O)N[C@@H](CCCCNC(=O)Cc3ccc(I)cc3)C(=O)O)nn2)c1)C(=O)O)C(=O)O [macropa-RPS-070, (((S)-1-Carboxy-5-(3-(3-(1-((23S,26S)-26-carboxy-23-(4-(3-(2-carboxy-6-((16-((6-carboxypyridin-2-yl)methyl)-1,4,10,13-tetraoxa-7,16-diazacyclooctadecan-7-yl)methyl)pyridin-4-yl)thioureido)butyl)-33-(4-iodophenyl)-21,24,32-trioxo-3,6,9,12,15,18-hexaoxa-22,25,31-triazatritriacontyl)-1H-1,2,3-triazol-4-yl)phenyl)ureido)pentyl)carbamoyl)-L-glutamic acid]
retention of 225Ac by the construct in vivo [3]: stably retain
